One assay concerns the target TRKA^WT kinase (Homo sapiens (Human), UniProt P04629). Kind of assay: Inhibitory activity against TRKA WT kinase (Caliper mobility shift). In kind it is biochemical. To be noted: in vitro kinase assay. Summed up:
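Kinase preincubated 10 min at room temperature with compound (10-point 3-fold series from 1000 nM), then reaction started with ATP and Kinase Substrate 22. Substrate conversion read by Caliper mobility shift; IC50 from variable-slope log(inhibitor)–response fit of % inhibition versus no-enzyme and no-compound controls.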

The target in a further assay is TRKA^F589L kinase (Homo sapiens (Human), UniProt P04629, F589L). Kind of assay: Inhibitory activity against TRKA(F589L) kinase (Caliper mobility shift). It counts as biochemical. To be noted: in vitro kinase assay. How it is done: Kinase Assay Process: 1× Kinase buffer was prepared. […] The compounds were serially diluted into 10 concentrations ([…], 0.15, and 0.05 nM) using a Precision 3-fold dilution method. By using the Echo550 liquid handler, 250 nL of the 100-fold final concentration compound was transferred to an OptiPlate-384F plate. a 2.5× final concentration kinase solution was prepared using 1× Kinase buffer. 10 μL of the 2.5× final concentration kinase solution was added to the compound wells and the positive control wells, and 10 μL of 1× Kinase buffer was added to the negative control wells. The plate was centrifuged at 1000 rpm for 30 seconds, vortexed for mixing, and then incubated at room temperature for 10 minutes. A mixture of 5/3× final concentration of ATP and Kinase Substrate 22 was prepared using 1× Kinase buffer. 15 μL of the mixture of the 5/3× final concentration ATP and the substrate was added to initiate the reaction, the 384-well plate was centrifuged at 1000 rpm for 30 seconds, vortexed for mixing, and incubated at room temperature for the required time. 30 μL of the termination solution was added to stop the kinase reaction, the plate was centrifuged at 1000 rpm for 30 seconds, and vortexed for mixing. The conversion rate was measured using the Caliper EZ Reader.
Chain of TRKA^F589L kinase (P04629 33-796 F589L): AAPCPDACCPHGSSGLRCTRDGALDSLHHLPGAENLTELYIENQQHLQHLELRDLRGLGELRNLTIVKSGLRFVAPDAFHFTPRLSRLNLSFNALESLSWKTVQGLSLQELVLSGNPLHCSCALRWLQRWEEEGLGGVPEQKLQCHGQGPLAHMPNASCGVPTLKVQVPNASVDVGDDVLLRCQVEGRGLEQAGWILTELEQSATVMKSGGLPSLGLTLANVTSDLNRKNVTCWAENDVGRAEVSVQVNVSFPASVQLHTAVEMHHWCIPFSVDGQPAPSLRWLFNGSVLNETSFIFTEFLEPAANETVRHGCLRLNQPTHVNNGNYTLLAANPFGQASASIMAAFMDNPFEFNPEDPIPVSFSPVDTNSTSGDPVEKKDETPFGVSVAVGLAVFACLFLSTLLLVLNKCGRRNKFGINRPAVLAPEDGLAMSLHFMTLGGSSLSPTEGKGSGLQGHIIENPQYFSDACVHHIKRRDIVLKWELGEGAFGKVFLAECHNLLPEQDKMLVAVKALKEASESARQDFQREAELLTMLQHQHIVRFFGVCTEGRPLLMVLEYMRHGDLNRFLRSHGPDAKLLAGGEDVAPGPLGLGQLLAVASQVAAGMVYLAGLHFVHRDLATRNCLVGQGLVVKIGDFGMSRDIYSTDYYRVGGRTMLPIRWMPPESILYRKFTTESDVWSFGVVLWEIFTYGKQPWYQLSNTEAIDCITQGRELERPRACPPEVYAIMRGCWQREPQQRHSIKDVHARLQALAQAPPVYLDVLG
Data Analysis: the inhibition rate was calculated as follows:
% Inhibition=(Conversion %_max−conversion %_sample)÷(Conversion %_max−conversion %_min)×100
Conversion %_sample is the conversion rate reading for the sample; Conversion %_min is the average value of the negative control wells, representing the conversion rate for wells without enzyme activity: Conversion %_max is the average value of the positive control wells, representing the conversion rate for wells without compound inhibition. A dose-response curve was fitted using the log concentration of the compound as the X-axis and the percentage inhibition as the Y-axis. The log(inhibitor) vs. response-variable slope of the GraphPad Prism 5 software was used to fit the dose-response curve, and the IC50 value for each compound was obtained. The calculation formula is:
Y=Bottom+(Top−Bottom)/(1+10^((Log IC50−X)*HillSlope)).
wherein X represents the concentration of the compound to be tested; Y represents the inhibition rate at the concentration X: Top refers to the maximum response: Bottom refers to the baseline response; HillSlope refers to the slope of the curve (i.e., the gradient).

For assay [1], the system named is Ba/F3-TPM3-NTRK1-G667C cells. Kind of assay: Growth inhibition of Ba/F3-TPM3-NTRK1-G667C cells (Cell Titer-Glo). It counts as cell-based. To be noted: 72 hours, CTG; read-out: inhibitory activity IC50 Ba/F3-TPM3-NTRK1-G667C. Summed up: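 Ba/F3 cells were exposed for 72 hours to serially DMSO-diluted compound at a top final concentration of 10 μM. Viability was read by Cell Titer-Glo luminescence after the plate equilibrated 30 min at room temperature and was then shaken 1 hour in the dark at room temperature.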

The test system of assay [2] is Ba/F3-TPM3-NTRK1-G595R cells. Kind of assay: Growth inhibition of Ba/F3-TPM3-NTRK1-G595R cells (Cell Titer-Glo). It counts as cell-based. To be noted: 72 hours, CTG; read-out: inhibitory activity IC50 Ba/F3-TPM3-NTRK1-G595R. The procedure:
(§1) Then the solutions were subjected to a gradient dilution with DMSO: a clean, sterile V-bottom 96-well microplate was placed in the biological safety cabinet. First, 4 μL of DMSO was added to well B2 and 10 μL of DMSO was added to wells B3-B11 respectively; Next, 6 μL of the 10 mM solution was added to well B2. The microplate was pipetted up and down 10 times for mixing. […] Mixing was performed by pipetting up and down 10 times. The solution was diluted in order until well B10. only DMSO was added to well B11 (no compound).
(§2) 6× Compound Solution Preparation (6-fold dilution, × represents dilution factor): (Initial final concentration: 10 μM), a clean, sterile V-bottom 96-well microplate was placed in the biological safety cabinet. 99 μL of cell culture medium was added to each well from B2 to G11. By using a 12-channel pipettor, 1 μL of the compound solution prepared in the previous step was added into the corresponding wells. The solutions were pipetted up and down 10 times to mix the solutions. The highest concentration of compound in this step was 60 μM.
(§3) Treatment of Cells: the above-prepared cell culture plate was taken out of the incubator. 20 μL of compound solution from each well was added to the corresponding cell culture wells. The lowest pipetting speed was used and touching the bottom of the plate was avoided. The culture plate was gently shaked to mix the compound solution, then the plate was returned to the incubator for further culture for 72 hours.
(§4) The highest treatment concentration of the compound was 10 μM. After 72 hours of treatment, the Cell Titer-Glo (CTG) assay was performed. First, the cell culture plate was removed from the CO2 incubator and allowed to stand at room temperature for 30 minutes to ensure uniform temperature of the plate. The pre-prepared Cell Titer-Glo reagent (following the manufacturer's instructions) was taken and allowed to stand at room temperature to thaw. 60 μL of Cell Titer-Glo reagent was added to each well containing cells. The cells were incubated on a horizontal shaker in a dark place at 225 rpm for 1 hour at room temperature. Then, a Tecan Spark microplate reader was used to read the plate using chemiluminescence according to the manufacturer's instructions.

Assay [3] has as its system Ba/F3-TPM3-NTRK1-WT cells. In words: Growth inhibition of Ba/F3-TPM3-NTRK1-WT cells (Cell Titer-Glo). To be noted: 72 hours, CTG; read-out: inhibitory activity IC50 Ba/F3-TPM3-NTRK1-WT. It counts as cell-based. How it is done:
as §1, §2, §3, §4

Chain of TRKA^WT kinase (P04629 33-796): as the sequence (P04629 33-796 F589L) above, with L557F counted along it

As to `C[C@@H]1Cc2cc(ncn2)-c2cnc3ccc(nn23)N2C[C@@H](F)C[C@@H]2c2cc(F)ccc2O1` [Example I-98, (3^2R,3^4S,6R,E)-3^4,4^5-difluoro-6-methyl-5-oxa-2(3,6)-imidazo[1,2-b]pyridazina-1(4,6)-pyrimidina-3(1,2)-pyrrolidina-4(1,2)-benzenacycloheptaphane], the IC50 at TRKA^WT kinase is less than 3 nM; on TRKA^F589L kinase, less than 5 nM; in assay [1], 16.3 nM; in assay [2], 1.5 nM; in assay [3], 0.22 nM.

With `Fc1cnc2c(c1)[C@H]1C[C@H](F)CN1c1ccc3ncc(n3n1)-c1nccc(n1)CCO2` [Example I-88, (3^2R,3^4S,E)-3^4,4^5-difluoro-5-oxa-2(3,6)-imidazo[1,2-b]pyridazina-1(2,4)-pyrimidina-4(3,2)-pyridina-3(1,2)-pyrrolidinacycloheptaphane], the IC50 is less than 3 nM at TRKA^WT kinase; less than 5 nM at TRKA^F589L kinase; 10.1 nM in assay [1]; 1.7 nM in assay [2]; 0.12 nM in assay [3].

As for `C[C@H]1Nc2ccc3ncc(n3n2)-c2cc(ccn2)COc2ncccc21` [Example I-20, (R)-(E)-6-methyl-4-oxa-7-aza-1(3,6)-imidazo[1,2-b]pyridazina-2(2,4), 5(2,3)-dipyridinacycloheptaphane], the results for the IC50 (on TRKA^WT kinase; at TRKA^F589L kinase; in assay [1]) were less than 3 nM, less than 5 nM and less than 100 nM, respectively.

Consider `C[C@H]1Nc2ccc3ncc(n3n2)-c2cc(ccn2)COc2c(F)cc(F)cc21` [Example I-16, (R)-(E)-5^4,5^6-difluoro-6-methyl-4-oxa-7-aza-1(3,6)-imidazo[1,2-b]pyridazine-2(2,4)-pyridina-5(1,2)-benzenacycloheptaphane], for which the IC50 is less than 3 nM on TRKA^WT kinase, less than 5 nM at TRKA^F589L kinase and less than 100 nM in assay [1].

Regarding `C[C@H]1Nc2ccc3ncc(n3n2)-c2cc(ccn2)OCc2ccc(F)cc21` [Example I-30, (R)-(E)-5^4-fluoro-6-methyl-3-oxa-7-aza-1(3,6)-imidazo[1,2-b]pyridazina-2(2,4)-pyridina-5(1,2)-benzenacycloheptaphane], the IC50 at TRKA^WT kinase was less than 3 nM; on TRKA^F589L kinase, less than 5 nM; in assay [1], less than 100 nM.

`C[C@@H]1Cc2cc(ncn2)-c2cnc3ccc(nn23)N2CCC[C@@H]2c2cc(F)ccc2O1` [Example I-97, (3^2R,6R,E)-4^5-fluoro-6-methyl-5-oxa-2(3,6)-imidazo[1,2-b]pyridazina-1(4,6)-pyrimidina-3(1,2)-pyrrolidina-4(1,2)-benzenacycloheptaphane]: the values for the IC50 (on TRKA^WT kinase; on TRKA^F589L kinase; in assay [1]) were less than 3 nM, less than 5 nM and less than 100 nM, respectively.

For the molecule `Fc1ccc2c(c1)[C@H]1CCCN1c1ccc3ncc(n3n1)-c1cc(ccn1)CO2` [Example I-49, (14bR,E)-13-fluoro-14b,15,16,17-tetrahydro-9H-1,19-etheno-4,8-(metheno)benzo[b]imidazo[1,5-h]pyrrolo[2,1-d][1]oxa[5,7,8,11]tetraazacyclopentadecine], the IC50 was less than 3 nM at TRKA^WT kinase, less than 5 nM on TRKA^F589L kinase and less than 100 nM in assay [1].

`C[C@H]1Nc2ccc3ncc(n3n2)-c2cc(ccn2)OCc2ncc(F)cc21` [Example I-24, (R)-(E)-5^5-fluoro-6-methyl-3-oxa-7-aza-1(3,6)-imidazo[1,2-b]pyridazina-2(2,4), 5(2,3)-dipyridinacycloheptaphane]: the figures for the IC50 (at TRKA^WT kinase; on TRKA^F589L kinase; in assay [1]) were less than 3 nM, less than 5 nM and less than 100 nM, respectively.

The record behind these values is patent US20260028352A1, “MACROCYCLIC IMIDAZO [1,2-B] PYRIDAZINE DERIVATIVE, PREPARATION METHOD THEREFOR, AND USE THEREOF” (SUZHOU LANGRUI BIOPHARMACEUTICAL CO., LTD., priority 2022, published 2026).
